Measurements as given in US20220175720A1, “COMBINED P[…] ANTHOCYANIN COMPOSITION AND AN ANTIVIRAL AGENT” (priority 2019, published 2022).

Legend:
[1] = tested on: GFP-encoding wildtype HSV-1 virus; assay: HSV-1 infection assay, GFP-expressing infected cells counted directly; type: cell-based, herpes simplex virus 1; conditions: single anthocyanins, BHK cells
Protocol: BHK cells were incubated with decreasing concentration of the solubilized test compounds for approx. 1 h. All concentrations were analyzed by six independent replicates on a black 96 well plate (PerkinElmer). Cells were infected with GFP-encoding wildtype HSV-1 virus and incubated for two days. Two days after infection, HSV-1-infected cells and GFP expressing cells were directly counted using the PerkinElmer Ensight system with optical cell culture plates. The instrument was controlled by manual counting.
The cells were subsequently infected with GFP-encoding HSV at a multiplicity of infection of 2.5, and infected GFP-expressing cells were counted one day after infection using the PerkinElmer Ensight system. […] Thus, the sugar is not required as potential co-factor for drug uptake.

HSV-1 = HSV-1 complete replication cycle assay, supernatants used to infect fresh BHK cells; type: cell-based, herpes simplex virus 1
Protocol: To not only analyze the virus entry and early phase of virus replication of infection but also later phases of viral replication, the test assay was adjusted accordingly. BHK cells were incubated with test compounds and subsequently infected with HSV-1. Two days after infection supernatants were collected, centrifuged to remove detached cells and used to infect BHK cells. After two additional days infected cells were quantified using the Ensight system.
Two days after infection supernatants were collected, centrifuged to remove detached cells and used to infect BHK cells. After two additional days infected cells were quantified using the PerkinElmer Ensight system. The mean of infected cells from six independent wells was calculated. Error bars show the standard deviation.
(§1) However, Aciclovir, the standard therapy for HSV-1, targets viral DNA replication before the late phase of virus replication cycle. […] Two days after infection supernatants were collected, centrifuged to remove detached cells and used to infect BHK cells. After two addition days infected cells were quantified.
as §1

SMILES	inhibition of HSV-1 (viral infectivity) [1]	reduction of infected cells (HSV-1; 0.5 μg/ml Aciclovir alone)	reduction of viral infectivity (HSV-1; 2 μg/ml Aciclovir alone)
OC[C@H]1O[C@@H](Oc2cc3c(O)cc(O)cc3[o+]c2-c2cc(O)c(O)c(O)c2)[C@H](O)[C@@H](O)[C@H]1O [D3Gal, Delphinidin 3-galactoside]	Neither C3G nor D3Gal or Pet3G inhibited HSV-1	–	–
COc1cc(-c2[o+]c3cc(O)cc(O)c3cc2O[C@@H]2O[C@H](CO)[C@@H](O)[C@H](O)[C@H]2O)cc(O)c1O [Pet3G, Petunidin 3-glucoside]	Neither C3G nor D3Gal or Pet3G inhibited HSV-1	–	–
Nc1nc2c(ncn2COCCO)c(=O)[nH]1 [Aciclovir, 9-(2-hydroxyethoxymethyl)guanine]	–	two	two
OC[C@H]1O[C@@H](Oc2cc3c(O)cc(O)cc3[o+]c2-c2ccc(O)c(O)c2)[C@H](O)[C@@H](O)[C@@H]1O [C3G, Cyanidin 3-glucoside]	Neither C3G nor D3Gal or Pet3G inhibited HSV-1	–	–
